Reference: BindingDB's records for patent US11147816 (Genuv, 2021)

Key:
[1] = target: Dual specificity mitogen-activated protein kinase kinase 1 (Homo sapiens, UniProt Q02750); assay: MEK 1/2 inhibition
[2] = target: Dual specificity mitogen-activated protein kinase kinase 2 (Homo sapiens, UniProt P36507); assay: MEK 1/2 inhibition
Chain of Dual specificity mitogen-activated protein kinase kinase 2 (P36507 whole entry): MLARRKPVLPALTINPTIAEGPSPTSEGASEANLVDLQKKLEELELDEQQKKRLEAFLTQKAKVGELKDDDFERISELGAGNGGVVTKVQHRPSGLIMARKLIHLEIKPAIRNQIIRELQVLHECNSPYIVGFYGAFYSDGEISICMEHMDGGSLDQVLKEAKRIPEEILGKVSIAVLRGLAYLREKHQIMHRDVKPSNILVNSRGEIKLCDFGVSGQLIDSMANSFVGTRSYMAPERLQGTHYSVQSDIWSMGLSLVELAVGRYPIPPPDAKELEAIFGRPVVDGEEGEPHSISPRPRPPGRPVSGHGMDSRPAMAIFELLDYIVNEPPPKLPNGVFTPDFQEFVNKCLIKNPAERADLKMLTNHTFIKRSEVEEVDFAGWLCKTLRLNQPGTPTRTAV

Chain of Dual specificity mitogen-activated protein kinase kinase 1 (Q02750 whole entry): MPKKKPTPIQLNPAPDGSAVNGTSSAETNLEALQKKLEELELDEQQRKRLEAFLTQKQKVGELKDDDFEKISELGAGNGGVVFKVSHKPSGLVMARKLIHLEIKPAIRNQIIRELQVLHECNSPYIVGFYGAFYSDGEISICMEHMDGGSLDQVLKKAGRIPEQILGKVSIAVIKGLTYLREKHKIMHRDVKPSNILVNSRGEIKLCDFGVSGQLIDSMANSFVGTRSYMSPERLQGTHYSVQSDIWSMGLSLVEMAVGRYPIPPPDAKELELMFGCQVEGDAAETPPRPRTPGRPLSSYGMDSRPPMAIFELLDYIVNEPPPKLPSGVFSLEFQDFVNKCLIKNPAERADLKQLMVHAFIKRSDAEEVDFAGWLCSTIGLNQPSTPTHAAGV

| Compound | IC50 [1] | IC50 [2] |
| --- | --- | --- |
| O=C(NOC[C@@H](O)CO)c1cc(Br)c(F)c(F)c1Nc1ccc(I)cc1F [US11147816, PD318088] | 1.4 nM |  |
| COc1cc(F)c(F)c(Nc2ccc(I)cc2F)c1NS(=O)(=O)C1(C[C@H](O)CO)CC1 [US11147816, Refametinib (RDEA119, Bay] |  | 47 nM |
